# Patent publication US20080287525A1, “Pharmaceuticals for treating or preventing oral diseases” (HAWLEY & HAZEL (BVI) COMPANY LIMITED, priority 2007, published 2008)
# Columns and labels:
# [1] = tested on: IL-6; experiment: Anti-inflammatory test in KB cells, LUMINEX, IL-6; type: cell-based, human; settings: KB cell supernatant, the larger the value, the stronger the anti-inflammatory ability
# Procedure: (§1) Anti-inflammatory activity was assessed using the KB cell (the epidermis cancer cell in human oral cavity). During the experiment, the KB cell inoculated in the cultivating plate was treated with or without positive control or Mulberrofuran G. After the treatment, the supernatant of the cultivating medium was collected and stored in −80° C. refrigerator. Inflammation was assessed by measuring several inflammation markers: Prostaglandin E2 (PGE2) in the supernatant was detected by Enzyme-linked immunsorbent assay, and LUMINEX™ multifunctional liquid-phase chip analysis system was used for the detection of granulocyte monocyte colony stimulating factor (GM-CSF), tumor necrosis factor-alpha (TNF-α), and interleukins 1-beta and 6 ([…] and IL-6).
# (§2) LUMINEX™ multifunctional liquid-phase chip analyses of GM-CSF, TNF-α, IL-1 and IL-6: The 96-well plate was enclosed with enclosing liquid for 30 minutes. Fluorescent microspheres were added into the 96-well plate after dilution. The standard and the samples to be measured were added, and incubated overnight at 4° C. The next day, the supernatant was discarded and 50 μL GM-CSF, TNF-α, IL-1β and IL-6 antibodies were added to each well. After being rinsed for 4 times, the 96-well plate was placed in a shaking table, which was in ambient temperature, to keep the plate away from light for one hour. […]
# [2] = tested on: IL-1β; experiment: Anti-inflammatory test in KB cells, LUMINEX, IL-1β; type: cell-based, human; settings: KB cell supernatant, the larger the value, the stronger the anti-inflammatory ability
# Procedure: as §1, §2
# [3] = tested on: TNF-α; experiment: Anti-inflammatory test in KB cells, LUMINEX, TNF-α; type: cell-based, human; settings: KB cell supernatant, the larger the value, the stronger the anti-inflammatory ability
# Procedure: as §1, §2
# [4] = tested on: Porphyromonas gingivalis (P. g) ATCC 33277; experiment: Micro-dilution MIC test, P. g; type: cell-based; settings: anaerobic, 37 °C, 18-24 h, unit not given, method gives concentrations in mg/L (ppm)
# Procedure: (§3) A single colony was picked from the Trypticase Digested Soybean peptone agar blood plate (TSA5B) of ordinarily stored bacteria species and used to inoculate corresponding broth culture medium, which was cultivated in a microaerobic environment (P.g needs anaerobic cultivation) with 95% air, 5% CO2 at 37.0° C.±1.0° C., wherein S.m and S.sa were cultivated for 18-24 h, and the remaining five species were cultivated for 40-48 h. Then corresponding broth cultivate medium was used to adjust the turbidity of the bacteria suspension to 0.5 McFarland standard, equivalent to 1.0×10^8 CFU/mL.
# (§4) The operating steps were:
# (§5) a. Preparation of the stock solution of antibacterial pharmaceutical: 1% stock solution of various antibacterial pharmaceuticals was prepared with 100% pure ethanol as solvent. The prepared stock solution was filtered to eliminate bacteria, and was distributed into small portions to be used.
# (§6) b. Range of measured concentration: the present experiment used 250 ppm as the ceiling measured concentration of the anti-bacterial pharmaceutical.
# (§7) c. Measuring method: micro-dilution method. […]
# (§8) The bacteria to be tested and standard bacteria were prepared using the same method as above. […] 0.12 mg/L, and the final inoculation quantity was about […] or 5×10^6 bacteria in each well. […]
# [5] = tested on: Actinomyces viscosus (A. v) ATCC 27044; experiment: Micro-dilution MIC test, A. v; type: cell-based; settings: 37 °C, 18-24 h, unit not given, method gives concentrations in mg/L (ppm)
# Procedure: as §3, §4, §5, §6, §7, §8
# [6] = tested on: Fusobacterium nucleatum subsp. Polymorphum (F. n) ATCC 10953; experiment: Micro-dilution MIC test, F. n; type: cell-based; settings: 37 °C, 18-24 h, unit not given, method gives concentrations in mg/L (ppm)
# Procedure: as §3, §4, §5, §6, §7, §8
# [7] = tested on: Streptococcus sanguis (S. sa) ATCC 10556; experiment: Micro-dilution MIC test, S. sa; type: cell-based; settings: 37 °C, 18-24 h, unit not given, method gives concentrations in mg/L (ppm)
# Procedure: as §3, §4, §5, §6, §7, §8
# [8] = tested on: Actinomyces naeslundii (A. n) ATCC 12104; experiment: Micro-dilution MIC test, A. n; type: cell-based; settings: 37 °C, 18-24 h, unit not given, method gives concentrations in mg/L (ppm)
# Procedure: as §3, §4, §5, §6, §7, §8
# [9] = tested on: Actinobacilus actinomycetemcomitans (A. a) ATCC 43717; experiment: Micro-dilution MIC test, A. a; type: cell-based; settings: 37 °C, 18-24 h, unit not given, method gives concentrations in mg/L (ppm)
# Procedure: as §3, §4, §5, §6, §7, §8
# [10] = tested on: Streptococcus mutans (S. m) ATCC 25175; experiment: Micro-dilution MIC test, S. m; type: cell-based; settings: 37 °C, 18-24 h, unit not given, method gives concentrations in mg/L (ppm)
# Procedure: as §3, §4, §5, §6, §7, §8
# [11] = tested on: GM-CSF; experiment: Anti-inflammatory test in KB cells, LUMINEX, GM-CSF; type: cell-based, human; settings: KB cell supernatant, the larger the value, the stronger the anti-inflammatory ability
# Procedure: as §1, §2
"MIC, P. g ATCC 33277 [4]","MIC, A. v ATCC 27044 [5]","MIC, F. n ATCC 10953 [6]","MIC, S. sa ATCC 10556 [7]","MIC, A. n ATCC 12104 [8]","MIC, A. a ATCC 43717 [9]","MIC, S. m ATCC 25175 [10]",SMILES,"anti-inflammatory effect, IL-6 [1]","anti-inflammatory effect, IL-1β [2]","anti-inflammatory effect, TNF-α [3]","anti-inflammatory effect, GM-CSF [11]"
,,,,,,,"Oc1cc(Cl)ccc1Oc1ccc(Cl)cc1Cl [Triclosan, reference compound]",31%,7%,81%,
1.9,2.4,7.8,7.8,1.9,2.4,3.9,"CC1=C[C@H]2c3c(O)cc(-c4cc5ccc(O)cc5o4)cc3O[C@@]3(c4ccc(O)cc4O)Oc4cc(O)ccc4[C@H](C1)[C@@H]23 [Mulberrofuran G, 3aH-Benzo[3,4][2]benzopyrano[1,8-bc][1]-benzopyran-4,11-diol, 8a-(2,4-dihydroxphenyl)-1,8a,13b,13c-tetrahydro-6-(6-hydroxy-2-benzofuranyl)-2-methyl-, (3a,S,8aS,13bS,13cR)-]",48%,18%,90%,8%
